According to paper PMC9694544, “Conteltinib (CT-707) in patients with advanced ALK-positive non-small cell lung cancer: a multicenter, open-label, first-in-human phase 1 study” (BMC Medicine, 2022):

Tested on: patients with ALK-positive NSCLC
Assay: Phase 1 safety assessment (TRAEs by CTCAE 4.03, DLT, MTD, RP2D)
Type: in vivo, human
Protocol: In the dose-escalation phase, the dose was escalated sequentially from a low to a high level with a 3 + 3 dose-escalation scheme based on the modified Fibonacci method. The starting dose for conteltinib was 50 mg orally quaque die (QD). Dose escalation proceeded to the next six cohorts of 100 mg, 200 mg, 300 mg, 450 mg, 600 mg, and 800 mg QD. For each dose, there was a PK lead-in phase where a single dose was given 7 days before cycle 1 day 1. Then, each dose was taken continuously in a 28-day cycle. The first cycle was for dose-limiting toxicity (DLT) investigation. When one of three patients experienced a DLT in a dose cohort, three additional patients were enrolled in the same dose cohort to assess the dose level in a total of six patients. All patients received conteltinib until disease progression, unacceptable toxicity, or withdrawal of consent. Patients received follow-up safety assessments for 30 days (±7 days) after the last conteltinib dose.
In the dose-expansion phase, each dose was taken continuously in a 28-day cycle. At the end of each cycle, a safety evaluation was conducted. If patients met the criteria to enter the next cycle, treatment with conteltinib was continued for subsequent cycles. All patients received conteltinib until disease progression, unacceptable toxicity, or withdrawal of consent. Patients received follow-up safety assessments for 30 days (±7 days) after the last dose of conteltinib.
The safety of conteltinib was assessed in safety set (SS) which was based on the National Cancer Institute Common Terminology Criteria for Adverse Events (CTCAE) version 4.03, laboratory tests, vital signs, ECG, and clinical observations. […] Adverse events (AEs) were judged to be treatment-related or not by investigators.
DLTs were AEs occurring in the first cycle of treatment (28 days) that were attributed to conteltinib, and the criteria were grade 4 neutropenia lasting ≥ 7 days, febrile neutropenia, grade 3 thrombocytopenia, grade 3 non-hematologic toxicity, and any conteltinib-related toxicity resulting in treatment delay > 2 weeks or discontinuation of conteltinib treatment at the assigned dose level. Besides, grade 3 nausea, vomiting, or diarrhea for ≥ 3 days or grade 4 nausea, vomiting, or diarrhea of any duration was considered as a DLT. The MTD was defined as the dose of conteltinib that would be closest to but not higher than a 33% probability of a DLT.

COc1cc(N2CCC(N3CCN(C)CC3)CC2)ccc1Nc1nc2c(c(Nc3ccccc3S(=O)(=O)NC(C)C)n1)CCN2 [Conteltinib]
Patients with any TRAE (50 mg QD (n=2), Grade 1–2): 1 (50.0) n (%) | TRAE ALT elevated (50 mg QD (n=2), Grade 1–2): 0 (0.0) n (%) | TRAE AST elevated (50 mg QD (n=2), Grade 1–2): 0 (0.0) n (%) | TRAE Abdominal pain (50 mg QD (n=2), Grade 1–2): 0 (0.0) n (%) | TRAE Abdominal pain upper (50 mg QD (n=2), Grade 1–2): 0 (0.0) n (%) | TRAE Appetite decreased (50 mg QD (n=2), Grade 1–2): 0 (0.0) n (%) | TRAE Conjugated bilirubin elevated (50 mg QD (n=2), Grade 1–2): 0 (0.0) n (%) | TRAE Diarrhea (50 mg QD (n=2), Grade 1–2): 1 (50.0) n (%) | TRAE Hypercholesterolemia (50 mg QD (n=2), Grade 1–2): 0 (0.0) n (%) | TRAE Hyperglycemia (50 mg QD (n=2), Grade 1–2): 0 (0.0) n (%) | TRAE Hypertriglyceridemia (50 mg QD (n=2), Grade 1–2): 0 (0.0) n (%) | TRAE Hyperuricemia (50 mg QD (n=2), Grade 1–2): 0 (0.0) n (%) | TRAE Hypoalbuminemia (50 mg QD (n=2), Grade 1–2): 0 (0.0) n (%) | TRAE Nausea (50 mg QD (n=2), Grade 1–2): 0 (0.0) n (%) | TRAE Proteinuria (50 mg QD (n=2), Grade 1–2): 0 (0.0) n (%) | TRAE Serum creatinine elevated (50 mg QD (n=2), Grade 1–2): 0 (0.0) n (%) | TRAE Vomiting (50 mg QD (n=2), Grade 1–2): 0 (0.0) n (%) | TRAE Weight loss (50 mg QD (n=2), Grade 1–2): 0 (0.0) n (%) | TRAE γ-GGT elevated (50 mg QD (n=2), Grade 1–2): 0 (0.0) n (%) | Patients with any TRAE (50 mg QD (n=2), Grade ≥ 3): 0 (0.0) n (%) | TRAE ALT elevated (50 mg QD (n=2), Grade ≥ 3): 0 (0.0) n (%) | TRAE AST elevated (50 mg QD (n=2), Grade ≥ 3): 0 (0.0) n (%) | TRAE Abdominal pain (50 mg QD (n=2), Grade ≥ 3): 0 (0.0) n (%) | TRAE Abdominal pain upper (50 mg QD (n=2), Grade ≥ 3): 0 (0.0) n (%) | TRAE Appetite decreased (50 mg QD (n=2), Grade ≥ 3): 0 (0.0) n (%) | TRAE Conjugated bilirubin elevated (50 mg QD (n=2), Grade ≥ 3): 0 (0.0) n (%) | TRAE Diarrhea (50 mg QD (n=2), Grade ≥ 3): 0 (0.0) n (%) | TRAE Hypercholesterolemia (50 mg QD (n=2), Grade ≥ 3): 0 (0.0) n (%) | TRAE Hyperglycemia (50 mg QD (n=2), Grade ≥ 3): 0 (0.0) n (%) | TRAE Hypertriglyceridemia (50 mg QD (n=2), Grade ≥ 3): 0 (0.0) n (%) | TRAE Hyperuricemia (50 mg QD (n=2), Grade ≥ 3): 0 (0.0) n (%) | TRAE Hypoalbuminemia (50 mg QD (n=2), Grade ≥ 3): 0 (0.0) n (%) | TRAE Nausea (50 mg QD (n=2), Grade ≥ 3): 0 (0.0) n (%) | TRAE Proteinuria (50 mg QD (n=2), Grade ≥ 3): 0 (0.0) n (%) | TRAE Serum creatinine elevated (50 mg QD (n=2), Grade ≥ 3): 0 (0.0) n (%) | TRAE Vomiting (50 mg QD (n=2), Grade ≥ 3): 0 (0.0) n (%) | TRAE Weight loss (50 mg QD (n=2), Grade ≥ 3): 0 (0.0) n (%) | TRAE γ-GGT elevated (50 mg QD (n=2), Grade ≥ 3): 0 (0.0) n (%) | Patients with any TRAE (100 mg QD (n=8), Grade 1–2): 6 (75.0) n (%) | TRAE ALT elevated (100 mg QD (n=8), Grade 1–2): 1 (12.5) n (%) | TRAE AST elevated (100 mg QD (n=8), Grade 1–2): 2 (25.0) n (%) | TRAE Abdominal pain (100 mg QD (n=8), Grade 1–2): 0 (0.0) n (%) | TRAE Abdominal pain upper (100 mg QD (n=8), Grade 1–2): 1 (12.5) n (%) | TRAE Appetite decreased (100 mg QD (n=8), Grade 1–2): 0 (0.0) n (%) | TRAE Conjugated bilirubin elevated (100 mg QD (n=8), Grade 1–2): 1 (12.5) n (%) | TRAE Diarrhea (100 mg QD (n=8), Grade 1–2): 0 (0.0) n (%) | TRAE Hypercholesterolemia (100 mg QD (n=8), Grade 1–2): 1 (12.5) n (%) | TRAE Hyperglycemia (100 mg QD (n=8), Grade 1–2): 1 (12.5) n (%) | TRAE Hypertriglyceridemia (100 mg QD (n=8), Grade 1–2): 1 (12.5) n (%) | TRAE Hyperuricemia (100 mg QD (n=8), Grade 1–2): 1 (12.5) n (%) | TRAE Hypoalbuminemia (100 mg QD (n=8), Grade 1–2): 0 (0.0) n (%) | TRAE Nausea (100 mg QD (n=8), Grade 1–2): 3 (37.5) n (%) | TRAE Proteinuria (100 mg QD (n=8), Grade 1–2): 0 (0.0) n (%) | TRAE Serum creatinine elevated (100 mg QD (n=8), Grade 1–2): 2 (25.0) n (%) | TRAE Vomiting (100 mg QD (n=8), Grade 1–2): 1 (12.5) n (%) | TRAE Weight loss (100 mg QD (n=8), Grade 1–2): 0 (0.0) n (%) | TRAE γ-GGT elevated (100 mg QD (n=8), Grade 1–2): 0 (0.0) n (%) | Patients with any TRAE (100 mg QD (n=8), Grade ≥ 3): 0 (0.0) n (%) | TRAE ALT elevated (100 mg QD (n=8), Grade ≥ 3): 0 (0.0) n (%) | TRAE AST elevated (100 mg QD (n=8), Grade ≥ 3): 0 (0.0) n (%) | TRAE Abdominal pain (100 mg QD (n=8), Grade ≥ 3): 0 (0.0) n (%) | TRAE Abdominal pain upper (100 mg QD (n=8), Grade ≥ 3): 0 (0.0) n (%) | TRAE Appetite decreased (100 mg QD (n=8), Grade ≥ 3): 0 (0.0) n (%) | TRAE Conjugated bilirubin elevated (100 mg QD (n=8), Grade ≥ 3): 0 (0.0) n (%) | TRAE Diarrhea (100 mg QD (n=8), Grade ≥ 3): 0 (0.0) n (%) | TRAE Hypercholesterolemia (100 mg QD (n=8), Grade ≥ 3): 0 (0.0) n (%) | TRAE Hyperglycemia (100 mg QD (n=8), Grade ≥ 3): 0 (0.0) n (%) | TRAE Hypertriglyceridemia (100 mg QD (n=8), Grade ≥ 3): 0 (0.0) n (%) | TRAE Hyperuricemia (100 mg QD (n=8), Grade ≥ 3): 0 (0.0) n (%) | TRAE Hypoalbuminemia (100 mg QD (n=8), Grade ≥ 3): 0 (0.0) n (%) | TRAE Nausea (100 mg QD (n=8), Grade ≥ 3): 0 (0.0) n (%) | TRAE Proteinuria (100 mg QD (n=8), Grade ≥ 3): 0 (0.0) n (%) | TRAE Serum creatinine elevated (100 mg QD (n=8), Grade ≥ 3): 0 (0.0) n (%) | TRAE Vomiting (100 mg QD (n=8), Grade ≥ 3): 0 (0.0) n (%) | TRAE Weight loss (100 mg QD (n=8), Grade ≥ 3): 0 (0.0) n (%) | TRAE γ-GGT elevated (100 mg QD (n=8), Grade ≥ 3): 0 (0.0) n (%) | Patients with any TRAE (200 mg QD (n=3), Grade 1–2): 3 (100) n (%) | TRAE ALT elevated (200 mg QD (n=3), Grade 1–2): 0 (0.0) n (%) | TRAE AST elevated (200 mg QD (n=3), Grade 1–2): 1 (33.3) n (%) | TRAE Abdominal pain (200 mg QD (n=3), Grade 1–2): 0 (0.0) n (%) | TRAE Abdominal pain upper (200 mg QD (n=3), Grade 1–2): 0 (0.0) n (%) | TRAE Appetite decreased (200 mg QD (n=3), Grade 1–2): 0 (0.0) n (%) | TRAE Conjugated bilirubin elevated (200 mg QD (n=3), Grade 1–2): 0 (0.0) n (%) | TRAE Diarrhea (200 mg QD (n=3), Grade 1–2): 0 (0.0) n (%) | TRAE Hypercholesterolemia (200 mg QD (n=3), Grade 1–2): 0 (0.0) n (%) | TRAE Hyperglycemia (200 mg QD (n=3), Grade 1–2): 0 (0.0) n (%) | TRAE Hypertriglyceridemia (200 mg QD (n=3), Grade 1–2): 0 (0.0) n (%) | TRAE Hyperuricemia (200 mg QD (n=3), Grade 1–2): 1 (33.3) n (%) | TRAE Hypoalbuminemia (200 mg QD (n=3), Grade 1–2): 0 (0.0) n (%) | TRAE Nausea (200 mg QD (n=3), Grade 1–2): 0 (0.0) n (%) | TRAE Proteinuria (200 mg QD (n=3), Grade 1–2): 0 (0.0) n (%) | TRAE Serum creatinine elevated (200 mg QD (n=3), Grade 1–2): 0 (0.0) n (%) | TRAE Vomiting (200 mg QD (n=3), Grade 1–2): 0 (0.0) n (%) | TRAE Weight loss (200 mg QD (n=3), Grade 1–2): 0 (0.0) n (%) | TRAE γ-GGT elevated (200 mg QD (n=3), Grade 1–2): 0 (0.0) n (%) | Patients with any TRAE (200 mg QD (n=3), Grade ≥ 3): 0 (0.0) n (%) | TRAE ALT elevated (200 mg QD (n=3), Grade ≥ 3): 0 (0.0) n (%) | TRAE AST elevated (200 mg QD (n=3), Grade ≥ 3): 0 (0.0) n (%)
